Test results taken from PMC5328627 (Journal of natural products, 2009).

What was measured:
Type in all cases: cell-based, human
NCI-H522 = details: non-small cell lung cancer cell line; single high dose 10^−5 M
IGROV1 = details: ovarian cancer cell line; single high dose 10^−5 M
UO-31 = details: renal cancer cell line; single high dose 10^−5 M

| Substance | Percent growth of NCI-H522 (NCI-H522) [%] | Percent growth of IGROV1 (IGROV1) [%] | Percent growth of UO-31 (UO-31) [%] |
| --- | --- | --- | --- |
| dominicin [compound 5] | 100 | 100 | 32.8 |
| euryjanicin A [compound 1] | 72.2 | 82.6 | 73.6 |
| cyclo(ATPFVPP) (SMILES CC(C)[C@@H]1NC(=O)[C@H](Cc2ccccc2)NC(=O)[C@@H]2CCCN2C(=O)[C@H]([C@@H](C)O)NC(=O)[C@H](C)NC(=O)[C@@H]2CCCN2C(=O)[C@@H]2CCCN2C1=O) [compound 2, euryjanicin B] | 83.9 | 91.3 | 76.3 |
| cyclo(SIPLFPI) (SMILES CC[C@H](C)[C@@H]1NC(=O)[C@@H]2CCCN2C(=O)[C@H](Cc2ccccc2)NC(=O)[C@H](CC(C)C)NC(=O)[C@@H]2CCCN2C(=O)[C@H]([C@@H](C)CC)NC(=O)[C@H](CO)NC1=O) [compound 3, euryjanicin C] | 95.1 | 100 | 83.4 |
| cyclo(FSPIFPI) (SMILES CC[C@H](C)[C@@H]1NC(=O)[C@@H]2CCCN2C(=O)[C@H](CO)NC(=O)[C@H](Cc2ccccc2)NC(=O)[C@H]([C@@H](C)CC)NC(=O)[C@@H]2CCCN2C(=O)[C@H](Cc2ccccc2)NC1=O) [compound 4, euryjanicin D] | 94.6 | 100 | 82.7 |
